One data set concerns the target human cathepsin S (CatS) (Homo sapiens (Human), UniProt P25774). The experiment in a line: CatS functional enzyme assay. The settings on record: for Selectivity Ki(hCatS)/Ki(hCatK): ratio Ki(hCatS)/Ki(hCatK); for Ki: recombinant human CatS, substrate Z-VVR-AMC 5 μM, pH 6.5, Ki by Cheng Prusoff equation, read-out: hCatS, Ki. It counts as biochemical. In outline:
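Recombinant human enzymes were incubated 10 min at RT with AMC substrate: CatS 0.0007 mU/well with Z-VVR-AMC 5 µM; CatK 0.00175 mU/well with Z-FR-AMC 40 µM; CatL 0.000874 mU/well with Z-VVR-AMC 40 µM. Fluorescence gave IC50, converted to Ki by Cheng-Prusoff.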

The target of the next data set is human cathepsin K (CatK) (Homo sapiens (Human), UniProt P43235). The experiment in a line: CatK functional enzyme assay. It counts as biochemical. As to conditions: recombinant human CatK, substrate Z-FR-AMC 40 μM, pH 5.5; Ki by Cheng Prusoff equation; read-out: hCatK, Ki. In outline:
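Recombinant human enzymes in 50 mM NaOAc, 10 mM EDTA, 1 mM DTT, 0.01% Triton X-100, pH 5.5, 10 min at RT. CatK: 0.00175 mU/well with 40 μM Z-FR-AMC; CatL: 0.000874 mU/well with 40 μM Z-VVR-AMC. AMC fluorescence read; IC50 converted to Ki via Cheng–Prusoff.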

Another data set addresses human cathepsin L (CatL) (Homo sapiens (Human), UniProt P07711). The experiment in a line: CatL functional enzyme assay. It counts as biochemical. The settings on record: read-out: hCatL, inhibition [%] at 31.6 μM.
A short description of data set [1]: Caco 2 permeability assay. The data set is classed as in vitro ADME, human. The settings on record: human; for efflux ratio at 120 min, 10 μM: pH 7.4, efflux ratio ER=Peff(B−A)/Peff(A−B), Caco-2; for Papp A→B at 120 min, 10 μM / Papp B→A at 120 min, 10 μM: Caco-2 monolayer, HBSS pH 7.4; for Papp A→B at 120 min, 10 μM: apical to basolateral, read-out: Peff a − b; for Papp B→A at 120 min, 10 μM: basolateral to apical, read-out: Peff b − a. The procedure: (§1) The intestinal permeability of a potential drug is assessed by in vitro cell culture from a human colon adenoma-carcinoma derived cell line. This cell line expresses some of the systems considered relevant to active drug transport e.g. […] (P-gp). In vitro cellular permeability assays can reflect both, permeation by passive diffusion and active transport (uptake and efflux). The rate of permeation across monolayers of Caco 2 cells were correlated to the extents of absorption (Hidalgo et al., Gastroenterology 1989; 96(3):736 49). Original methodology was developed by Artursson and Taveli (Drug Bioavailability. Series: Methods and Principles in Medicinal Chemistry. Weinheim: Wiley-VCH Verlag; 2003; p. 72-89).
(§2) The assay is performed as a trans-flux experiment. Caco-2 cells (cells from ATCC) are seeded and grown to confluence to form a monolayer (ca. 3 weeks, between passage numbers 40-60) on a readily permeable support in a plastic well supported within a chamber (Millipore Multiscreen Caco-2 plates, at a cell density of ca. 1×10^5 cells/cm^2). Cells are cultured for 20 days in DMEM and media is changed every two or three days. The cells form tight junctions, so paracellular diffusion is not possible, and grow in a polarised manner, efflux transporters (P-gp) are expressed on their apical surfaces facing the culture medium, rather than at their basolateral surfaces through which they are attached to the support membrane. A low concentration of a test compound is added to the upper (apical: A) or lower (basolateral: B) chambers, and the rate of loss from the donor compartment, and the rate of transfer to the acceptor chamber, is determined by LC-MS/MS. Consequently the influence of efflux transporters expressed in the apical membrane can be determined by comparing permeability rates from A to B and B to A. Assays are generally performed in gently shaken protein-free buffer.
(§3) On ca. day 20 the permeability study is performed. The monolayers are prepared by rinsing both basolateral and apical surfaces twice with Hanks Balanced Salt Solution (HBSS) pH 7.4 buffer with HEPES (25 mM) and 4.45 mM glucose at 37° C. Cells are then incubated with HBSS in both apical and basolateral compartments for 40 min to stabilise physiological parameters. Incubations are carried out in an atmosphere of 5% CO2 with a rel. humidity of 95% at 37° C.
(§4) HBSS is next removed from the apical compartment and replaced with test compound dosing solution. Test compound dosing solutions are made by diluting 10 mM test compound in DMSO with HBSS to give a final test compound concentration of 10 μM (final DMSO concentration 1%).
(§5) The fluorescent integrity marker lucifer yellow is also included in the dosing solution. Analytical standards are made from dosing solutions. The apical compartment inserts are then placed into ‘companion’ plates containing fresh HBSS. For basolateral to apical (B-A) permeability determination the experiment is initiated by replacing buffer in the inserts then placing them in companion plates containing dosing solutions. At 120 min the companion plate is removed and apical and basolateral samples diluted for analysis by LC-MS/MS. Test compound permeability is assessed in duplicate. […] Talinolol (a known P-gp substrate 2) is also included as a control compound to assess whether functional P-gp is present in the Caco-2 cell monolayer.
(§6) Test and control compounds are quantified by LC-MS/MS cassette analysis using a 5-point calibration with appropriate dilution of the samples. The starting concentration (C0) and experimental recovery are calculated from both apical and basolateral compartment concentrations.
(§7) Apparent permeability (Papp), used interchangeably with effective permeability (Peff) and efflux ratio (ER) are generated for each compound and reference compound. The permeability coefficient for each compound (Papp) is calculated from the following equation: Peff=dQ/dt/C0×A […]

In another data set the test system is Caco-2 cells. The experiment in a line: Caco 2 permeability assay. It counts as in vitro ADME, human. As to conditions: Caco-2, verbal assessment. Here is the method: as §1, §2, §3, §4, §5, §6, §7

Each structure is given as a SMILES string.

human cathepsin K (CatK), sequence (P43235 115-329): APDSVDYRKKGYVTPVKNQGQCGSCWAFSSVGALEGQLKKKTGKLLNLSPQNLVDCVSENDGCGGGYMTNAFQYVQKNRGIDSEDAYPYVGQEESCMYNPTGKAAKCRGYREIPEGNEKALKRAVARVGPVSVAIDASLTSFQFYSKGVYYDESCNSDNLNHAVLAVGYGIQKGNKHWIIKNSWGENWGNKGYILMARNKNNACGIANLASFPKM
human cathepsin L (CatL), sequence (P07711 114-333): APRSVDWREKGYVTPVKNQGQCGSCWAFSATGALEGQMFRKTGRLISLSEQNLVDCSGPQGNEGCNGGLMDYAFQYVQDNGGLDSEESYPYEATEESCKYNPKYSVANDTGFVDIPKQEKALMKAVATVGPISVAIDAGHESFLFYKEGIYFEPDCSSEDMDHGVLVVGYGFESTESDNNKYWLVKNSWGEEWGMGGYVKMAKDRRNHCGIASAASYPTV
human cathepsin S (CatS), sequence (P25774 115-331): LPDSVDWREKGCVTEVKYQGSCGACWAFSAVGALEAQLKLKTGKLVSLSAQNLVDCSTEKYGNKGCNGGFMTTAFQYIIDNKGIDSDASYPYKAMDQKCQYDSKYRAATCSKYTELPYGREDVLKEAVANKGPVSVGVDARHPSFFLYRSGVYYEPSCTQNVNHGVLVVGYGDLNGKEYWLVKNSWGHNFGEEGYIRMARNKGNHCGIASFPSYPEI

Consider `O=C(N[C@H](C(=O)N1C[C@H](Cl)[C@H]2OCC(=O)[C@H]21)C1CCCCC1)c1ccc(-c2cncnc2)s1` [Example 5, N-((S)-2-((3aS,6S,6aS)-6-chloro-3-oxotetrahydro-2H-furo[3,2-b]pyrrol-4(5H)-yl)-1-cyclohexyl-2-oxoethyl)-5-(pyrimidin-5-yl)thiophene-2-carboxamide], for which, at human cathepsin S (CatS), the “Selectivity Ki(hCatS)/Ki(hCatK)” value is reported as 1.5 and the inhibition constant Ki (as a rule, a measure of affinity in units of concentration, obtained from inhibition or displacement) is 48 nM. In addition, the Ki at human cathepsin K (CatK) is 31 nM. The inhibition (commonly the share of the control response that was lost under treatment) at 31.6 µM at human cathepsin L (CatL) stood at 27%. For the same compound, in data set [1], the efflux ratio – broadly, a quotient of directional permeabilities that is used to spot active efflux – at 120 min, 10 μM turned out to be 3.5; the Papp A→B at 120 min, 10 μM is 4.13 ×10⁻⁶ cm/s; the Papp B→A at 120 min, 10 μM stood at 14.2 ×10⁻⁶ cm/s. In the data set on Caco-2 cells, the “A to B permeability (in words)” value is listed as “moderate”, the “B to A permeability (in words)” value was “good” and the “efflux ratio (ER) (in words)” value is reported as “intermediate/low”.

With `O=C(N[C@H](C(=O)N1C[C@H](Cl)[C@H]2OCC(=O)[C@H]21)C1CCCCC1)c1cccc(-c2cn[nH]c2)c1` [Example C1, N-((S)-2-((3aS,6S,6aS)-6-chloro-3-oxotetrahydro-2H-furo[3,2-b]pyrrol-4(5H)-yl)-1-cyclohexyl-2-oxoethyl)3-(1H-pyrazol-4-yl)benzamide, reference compound], at human cathepsin S (CatS), the “Selectivity Ki(hCatS)/Ki(hCatK)” value is reported as 3.8 and the Ki amounted to 146 nM. Moreover, the Ki at human cathepsin K (CatK) was 38 nM. The inhibition at 31.6 µM on human cathepsin L (CatL) was 71%. Besides, in data set [1], the efflux ratio at 120 min, 10 μM is 46.1; the Papp A→B at 120 min, 10 μM is 0.53 ×10⁻⁶ cm/s; the Papp B→A at 120 min, 10 μM was determined as 24.6 ×10⁻⁶ cm/s. Moreover, in the data set on Caco-2 cells, the “A to B permeability (in words)” value is listed as “poor”, the “B to A permeability (in words)” value is given as “good” and the “efflux ratio (ER) (in words)” value is given as “extremely high”.

Regarding `O=C(N[C@H](C(=O)N1C[C@H](Cl)[C@H]2OCC(=O)[C@H]21)C1CCCCC1)c1ccc(-c2ccnnc2)s1` [Example 8, N-((S)-2-((3aS,6S,6aS)-6-chloro-3-oxotetrahydro-2H-furo[3,2-b]pyrrol-4(5H)-yl)-1-cyclohexyl-2-oxoethyl)-5-(pyridazin-4-yl)thiophene-2-carboxamide], at human cathepsin S (CatS), the “Selectivity Ki(hCatS)/Ki(hCatK)” value is given as 1.2 and the Ki was determined as 21 nM. The Ki on human cathepsin K (CatK) was 17 nM. Also, the inhibition at 31.6 µM on human cathepsin L (CatL) worked out at 32%. Besides, in data set [1], the efflux ratio at 120 min, 10 μM came out at 7.5; the Papp A→B at 120 min, 10 μM came out at 1.67 ×10⁻⁶ cm/s; the Papp B→A at 120 min, 10 μM came out at 12.5 ×10⁻⁶ cm/s. Besides, in the data set with Caco-2 cells, the “A to B permeability (in words)” value is “moderate”, the “B to A permeability (in words)” value is listed as “good” and the “efflux ratio (ER) (in words)” value is on record as “intermediate/low”.

Take `O=C(N[C@H](C(=O)N1C[C@H](Cl)[C@H]2OCC(=O)[C@H]21)C1CCCCC1)c1ccc(-c2ccncn2)s1` [Example 7, N-((S)-2-((3aS,6S,6aS)-6-chloro-3-oxotetrahydro-2H-furo[3,2-b]pyrrol-4(5H)-yl)-1-cyclohexyl-2-oxoethyl)-5-(pyrimidin-4-yl)thiophene-2-carboxamide]: on human cathepsin S (CatS), the “Selectivity Ki(hCatS)/Ki(hCatK)” value came to 4.7 and the Ki was determined as 56 nM. In addition, the Ki on human cathepsin K (CatK) turned out to be 12 nM. Further, on human cathepsin L (CatL), the inhibition at 31.6 µM was found to be 28%. In addition, in data set [1], the efflux ratio at 120 min, 10 μM came to 1.3; the Papp A→B at 120 min, 10 μM worked out at 5.37 ×10⁻⁶ cm/s; the Papp B→A at 120 min, 10 μM was found to be 7.03 ×10⁻⁶ cm/s. Besides, in the data set with Caco-2 cells, the “A to B permeability (in words)” value is recorded as “moderate”, the “B to A permeability (in words)” value is “good” and the “efflux ratio (ER) (in words)” value is “intermediate/low”.

The record behind these values is patent publication US9725459B2, “3-oxo-tetrahydro-furo[3,2-B]pyrrol-4(5H)-yl) derivatives I” (GRÜNENTHAL GMBH, priority 2014, dated 2017).
